Results: PubChem BioAssay AID248 (DTP/NCI, 2004)
Toxic doses and inconclusive results are not listed.

Test system: L1210 leukemia ip in BDF1 mice, survival T/C
Assay: NCI In Vivo Anticancer Drug Screen. Data for tumor model L1210 Leukemia (intraperitoneal) in B6D2F1 (BDF1) mice
Conditions: endpoint: mean survival time, higher = longer survival
Outline: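 Mice bearing the transplanted tumor received compound or vehicle. Survival of the treated group was divided by that of the vehicle-treated control group to give the ratio.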

[1] = dose: 100.0 mg/kg/injection, schedule: Q01DX009 (ip), vehicle: Klucel (hydroxypropylcellulose) (HPC)
[2] = dose: 100.0 mg/kg/injection, schedule: Q04DX003 (ip), vehicle: Klucel (hydroxypropylcellulose) (HPC)
[3] = dose: 200.0 mg/kg/injection, schedule: Q04DX003 (ip), vehicle: Klucel (hydroxypropylcellulose) (HPC)
[4] = dose: 400.0 mg/kg/injection, schedule: Q04DX003 (ip), vehicle: Klucel (hydroxypropylcellulose) (HPC)
[5] = dose: 400.0 mg/kg/injection, schedule: Q01DX009 (ip), vehicle: Klucel (hydroxypropylcellulose) (HPC)
[6] = dose: 100.0 mg/kg/injection, schedule: Q01DX009 (ip), vehicle: saline
[7] = dose: 200.0 mg/kg/injection, schedule: Q01DX009 (ip), vehicle: saline
[8] = dose: 400.0 mg/kg/injection, schedule: Q01DX009 (ip), vehicle: saline
[9] = dose: 25.0 mg/kg/injection, schedule: Q04DX002 (ip), vehicle: Klucel (hydroxypropylcellulose) (HPC)
[10] = dose: 50.0 mg/kg/injection, schedule: Q04DX002 (ip), vehicle: Klucel (hydroxypropylcellulose) (HPC)
[11] = dose: 100.0 mg/kg/injection, schedule: Q01DX009 (ip), vehicle: saline with Tween-80
[12] = dose: 200.0 mg/kg/injection, schedule: Q01DX009 (ip), vehicle: saline with Tween-80
[13] = dose: 400.0 mg/kg/injection, schedule: Q01DX009 (ip), vehicle: saline with Tween-80
[14] = dose: 50.0 mg/kg/injection, schedule: Q01DX001 (ip), vehicle: saline
[15] = dose: 100.0 mg/kg/injection, schedule: Q01DX001 (ip), vehicle: saline
[16] = dose: 200.0 mg/kg/injection, schedule: Q01DX001 (ip), vehicle: saline
[17] = dose: 100.0 mg/kg/injection, schedule: Q04DX003 (ip), vehicle: saline with Tween-80
[18] = dose: 200.0 mg/kg/injection, schedule: Q04DX003 (ip), vehicle: saline with Tween-80
[19] = dose: 400.0 mg/kg/injection, schedule: Q04DX003 (ip), vehicle: saline with Tween-80
[20] = dose: 100.0 mg/kg/injection, schedule: Q04DX002 (ip), vehicle: Klucel (hydroxypropylcellulose) (HPC)

`O=C(C[n+]1ccccc1-c1ccccn1)c1ccccc1` was tested, and the T/C (dose: 5.0 mg/kg/injection, schedule: Q01DX001 (ip), vehicle: saline) was 103 % of control, the T/C (dose: 10.0 mg/kg/injection, schedule: Q01DX001 (ip), vehicle: saline) was 103 % of control and the T/C (dose: 20.0 mg/kg/injection, schedule: Q01DX001 (ip), vehicle: saline) was 105 % of control. The T/C (dose: 40.0 mg/kg/injection, schedule: Q01DX001 (ip), vehicle: saline) was 113 % of control.

With `Cn1c(=O)c2ccccc2c2cc(Cl)ccc21` the T/C [1] was 94 % of control, the T/C [2] was 96 % of control and the T/C [3] was 96 % of control. For the same compound, the T/C [4] was 93 % of control.

With `[N-]=[N+]=C1C(Cl)=C(Cl)C(Cl)=C1Cl` the T/C (dose: 75.0 mg/kg/injection, schedule: Q01DX001 (ip), vehicle: other) was 96 % of control and the T/C (dose: 150.0 mg/kg/injection, schedule: Q01DX001 (ip), vehicle: other) was 102 % of control.

For `COC(=O)Nc1nc2ccc(Br)cc2[nH]1`, the T/C [1] was 100 % of control, the T/C [2] was 92 % of control and the T/C (dose: 200.0 mg/kg/injection, schedule: Q01DX009 (ip), vehicle: Klucel (hydroxypropylcellulose) (HPC)) was 100 % of control. The T/C [3] was 96 % of control, the T/C [5] was 109 % of control and the T/C [4] was 94 % of control.

For `c1ccc(C2CC2NC2=NCCO2)cc1` (centres undefined), the T/C (dose: 12.5 mg/kg/injection, schedule: Q04DX002 (ip), vehicle: saline with Tween-80) was 104 % of control, the T/C (dose: 25.0 mg/kg/injection, schedule: Q04DX002 (ip), vehicle: saline with Tween-80) was 101 % of control and the T/C (dose: 50.0 mg/kg/injection, schedule: Q04DX002 (ip), vehicle: saline with Tween-80) was 96 % of control. For the same compound, the T/C (dose: 100.0 mg/kg/injection, schedule: Q04DX002 (ip), vehicle: saline with Tween-80) was 93 % of control.

In the case of `C(=C\c1ccccc1)/CSc1ncnc2nc[nH]c12`, the T/C (dose: 62.5 mg/kg/injection, schedule: Q01DX015 (ip), vehicle: saline) is reported as 106 % of control, the T/C (dose: 125.0 mg/kg/injection, schedule: Q01DX015 (ip), vehicle: saline) is reported as 116 % of control and the T/C (dose: 250.0 mg/kg/injection, schedule: Q01DX015 (ip), vehicle: saline) is reported as 104 % of control. The T/C (dose: 500.0 mg/kg/injection, schedule: Q01DX015 (ip), vehicle: saline) was 166 % of control.

With `CCCCCCCCCCCCOc1ccccc1C=O` the T/C [2] was 101 % of control, the T/C [3] was 106 % of control and the T/C [4] was 96 % of control.

In the case of `[O-][n+]1c2ccccc2nc2ccccc21`, the T/C [2] is reported as 98 % of control, the T/C [3] is reported as 98 % of control and the T/C [4] is reported as 89 % of control.

In the case of `CC(Br)C(=O)OCc1ccccc1` (centres undefined), the T/C [6] is reported as 91 % of control, the T/C [7] is reported as 91 % of control and the T/C [8] is reported as 93 % of control.

For `C=CCNC(=S)Nc1cc(Cl)ccc1OC`, the T/C [1] was 90 % of control, the T/C [2] was 94 % of control and the T/C [3] was 92 % of control. For the same compound, the T/C [5] was 86 % of control and the T/C [4] was 94 % of control.

For `NC(CSS(=O)(=O)O)=NCc1ccccc1`, the T/C (dose: 12.5 mg/kg/injection, schedule: Q04DX002 (ip), vehicle: Klucel (hydroxypropylcellulose) (HPC)) was 114 % of control, the T/C [9] was 101 % of control and the T/C [10] was 97 % of control.

`COc1ccc(NC(=O)CC(C)C(=O)O)cc1` (centres undefined) was tested, and the T/C [11] was 102 % of control, the T/C [12] was 90 % of control and the T/C [13] was 104 % of control.

In the case of `CCCCCCCCCCCCOc1ccc(/C(=N\N=C(N)N)c2ccccc2)c(O)c1`, the T/C (dose: 15.0 mg/kg/injection, schedule: Q01DX Z (ip), vehicle: saline) is reported as 91 % of control, the T/C (dose: 30.0 mg/kg/injection, schedule: Q01DX Z (ip), vehicle: saline) is reported as 89 % of control and the T/C (dose: 120.0 mg/kg/injection, schedule: Q01DX Z (ip), vehicle: saline) is reported as 92 % of control. The T/C (dose: 120.0 mg/kg/injection, schedule: Q01DX Z (oral), vehicle: saline) was 102 % of control, the T/C (dose: 240.0 mg/kg/injection, schedule: Q01DX Z (ip), vehicle: saline) was 103 % of control and the T/C (dose: 240.0 mg/kg/injection, schedule: Q01DX Z (oral), vehicle: saline) was 102 % of control. The T/C (dose: 480.0 mg/kg/injection, schedule: Q01DX Z (ip), vehicle: saline) was 110 % of control, the T/C (dose: 480.0 mg/kg/injection, schedule: Q01DX Z (oral), vehicle: saline) was 95 % of control and the T/C (dose: 960.0 mg/kg/injection, schedule: Q01DX Z (oral), vehicle: saline) was 101 % of control.

With `CC(=O)N1C(=O)/C(=C\c2cc3c(cc2Br)OCO3)c2cc3c(cc21)OCO3` the T/C [14] was 118 % of control, the T/C [15] was 100 % of control and the T/C [16] was 106 % of control. The T/C (dose: 400.0 mg/kg/injection, schedule: Q01DX001 (ip), vehicle: saline) was 106 % of control.

With `Cc1ccc(NC(=O)Nc2cccc(C(F)(F)F)c2)cc1Cl` the T/C (dose: 100.0 mg/kg/injection, schedule: Q01DX009 (ip), vehicle: gum acacia) was 92 % of control, the T/C (dose: 200.0 mg/kg/injection, schedule: Q01DX009 (ip), vehicle: gum acacia) was 89 % of control and the T/C (dose: 400.0 mg/kg/injection, schedule: Q01DX009 (ip), vehicle: gum acacia) was 91 % of control.

For `NC(=O)NC(=O)c1ccccc1`, the T/C [6] was 96 % of control, the T/C [7] was 101 % of control and the T/C [8] was 106 % of control.

`C/C=C(/C(=O)c1ccc(-c2ccccc2)cc1)c1ccccc1` was tested, and the T/C [11] was 105 % of control, the T/C [17] was 95 % of control and the T/C [12] was 94 % of control. For the same compound, the T/C [18] was 89 % of control, the T/C [13] was 90 % of control and the T/C [19] was 94 % of control.

For `O=Cc1cc([N+](=O)[O-])ccc1OCC(=O)O`, the T/C [17] was 103 % of control, the T/C [18] was 92 % of control and the T/C [19] was 93 % of control.

In the case of `CCOCCN=Cc1ccccc1O.CCOCCN=Cc1ccccc1O.[Co]`, the T/C [14] is reported as 100 % of control, the T/C [15] is reported as 98 % of control and the T/C [16] is reported as 96 % of control.

In the case of `O=C(OCC1OC(n2nc3ccnc(Cl)c3n2)C(OC(=O)c2ccccc2)C1OC(=O)c1ccccc1)c1ccccc1` (centres undefined), the T/C (dose: 50.0 mg/kg/injection, schedule: Q01DX005 (ip), vehicle: saline) is reported as 105 % of control, the T/C (dose: 100.0 mg/kg/injection, schedule: Q01DX005 (ip), vehicle: saline) is reported as 102 % of control and the T/C (dose: 200.0 mg/kg/injection, schedule: Q01DX005 (ip), vehicle: saline) is reported as 110 % of control.

In the case of `c1ccc2c(Cc3c4ccccc4cc4ccccc34)c3ccccc3cc2c1`, the T/C [9] is reported as 94 % of control, the T/C [10] is reported as 97 % of control and the T/C [20] is reported as 90 % of control.

In the case of `CCCCCC#CC(O)(C(=O)OC)c1ccccc1` (centres undefined), the T/C (dose: 100.0 mg/kg/injection, schedule: Q01DX001 (ip), vehicle: other) is reported as 107 % of control, the T/C (dose: 200.0 mg/kg/injection, schedule: Q01DX001 (ip), vehicle: other) is reported as 107 % of control and the T/C (dose: 400.0 mg/kg/injection, schedule: Q01DX001 (ip), vehicle: other) is reported as 100 % of control.

For `CCOc1cc(OCC)c(/C=C/[N+](=O)[O-])c(OCC)c1`, the T/C [20] was 87 % of control, the T/C (dose: 200.0 mg/kg/injection, schedule: Q04DX002 (ip), vehicle: Klucel (hydroxypropylcellulose) (HPC)) was 97 % of control and the T/C (dose: 400.0 mg/kg/injection, schedule: Q04DX002 (ip), vehicle: Klucel (hydroxypropylcellulose) (HPC)) was 100 % of control.

For `C=C(Cl)CSc1ncnc2nc[nH]c12`, the T/C (dose: 75.0 mg/kg/injection, schedule: Q01DX001 (ip), vehicle: saline) was 98 % of control.

For `CC1=NS(=O)(=O)NC(C)(C)C1`, the T/C (dose: 12.5 mg/kg/injection, schedule: Q01DX009 (ip), vehicle: saline) was 93 % of control, the T/C (dose: 25.0 mg/kg/injection, schedule: Q01DX009 (ip), vehicle: saline) was 93 % of control and the T/C (dose: 50.0 mg/kg/injection, schedule: Q01DX001 (ip), vehicle: carboxymethylcellulose (CMC)) was 123 % of control. The T/C (dose: 50.0 mg/kg/injection, schedule: Q01DX009 (ip), vehicle: saline) was 98 % of control, the T/C (dose: 100.0 mg/kg/injection, schedule: Q01DX001 (ip), vehicle: carboxymethylcellulose (CMC)) was 96 % of control and the T/C [1] was 87 % of control.

With `Nc1ccc([N+](=O)[O-])cc1C(O)(C(F)(F)F)C(F)(F)F` (tested in a mixture with another compound) the T/C [11] was 101 % of control, the T/C [17] was 101 % of control and the T/C [12] was 94 % of control. For the same compound, the T/C [18] was 100 % of control and the T/C [19] was 97 % of control.
